From ChEMBL document CHEMBL2146393, “Synthesis and antiviral activity of 4,6-disubstituted pyrimido[4,5-b]indole ribonucleosides” (Bioorg Med Chem, 2012)
Activity calls are given as the source filed them. No cut-off for these calls is given here.

Experiments:
HeLa [1] = experiment: Cytotoxic activity against human HeLa cells; format: cell-based
HL-60 [2] = experiment: Cytotoxic activity against human HL60 cells; format: cell-based
[3] = Cytotoxicity against human HepG2 cells after 96 hrs by CCK8 assay; format: cell-based
THP-1 = experiment: Cytotoxicity against human THP1 cells after 96 hrs by CCK8 assay; format: cell-based; conditions: THP-1, 96 h
dengue virus type 2 = experiment: Antiviral activity against Dengue virus 2 NGC infected in human HuH7-Ehr2 cells after 48 hrs by luciferase reporter gene assay; format: functional, organism-based; conditions: Huh-7, 48 h
Hepatitis C virus = experiment: Antiviral activity against Hepatitis C virus; format: functional, organism-based; conditions: Hepacivirus hominis
HeLa [4] = experiment: Cytostatic activity against human HeLa cells; format: cell-based
CCRF-CEM [5] = experiment: Cytotoxic activity against human CCRF-CEM cells; format: cell-based
HL-60 [6] = experiment: Cytostatic activity against human HL60 cells; format: cell-based
CCRF-CEM [7] = experiment: Cytostatic activity against human CCRF-CEM cells; format: cell-based

| IC50 (dengue virus type 2) | Compound | Activity (HeLa [1]) | Activity (HL-60 [2]) | CC50 at 96 h [3] | IC50 (THP-1) | Activity (Hepatitis C virus) | Activity (HeLa [4]) | Activity (CCRF-CEM [5]) | Activity (HL-60 [6]) | Activity (CCRF-CEM [7]) |
| --- | --- | --- | --- | --- | --- | --- | --- | --- | --- | --- |
| 0.335 µM | OC[C@H]1O[C@@H](n2c3ccc(Cl)cc3c3c(-c4cccs4)ncnc32)[C@H](O)[C@@H]1O | Non-toxic | Non-toxic | 19.9 µM | 45.9 µM | inactive | Non-toxic | Non-toxic | Non-toxic | Non-toxic |
| 87 µM | OC[C@H]1O[C@@H](n2c3ccc(Cl)cc3c3c(-c4ccsc4)ncnc32)[C@H](O)[C@@H]1O | Non-toxic | Non-toxic | > 50 µM | > 50 µM | inactive | Non-toxic | Non-toxic | Non-toxic | Non-toxic |
| 82.7 µM | OC[C@H]1O[C@@H](n2c3ccccc3c3c(-c4ccco4)ncnc32)[C@H](O)[C@@H]1O | Non-toxic | Non-toxic | > 50 µM | > 50 µM | inactive | Non-toxic | Non-toxic | Non-toxic | Non-toxic |
| 17.9 µM | OC[C@H]1O[C@@H](n2c3ccc(-c4ccco4)cc3c3c(-c4ccco4)ncnc32)[C@H](O)[C@@H]1O | Non-toxic | Non-toxic | 7.44 µM | > 50 µM | inactive | Non-toxic | Non-toxic | Non-toxic | Non-toxic |
| 32.1 µM | OC[C@H]1O[C@@H](n2c3ccc(-c4ccoc4)cc3c3c(-c4ccco4)ncnc32)[C@H](O)[C@@H]1O | Non-toxic | Non-toxic | 33.1 µM | 45 µM | inactive | Non-toxic | Non-toxic | Non-toxic | Non-toxic |
| 24.4 µM | OC[C@H]1O[C@@H](n2c3ccc(Cl)cc3c3c(-c4ccoc4)ncnc32)[C@H](O)[C@@H]1O | Non-toxic | Non-toxic | > 50 µM | > 50 µM | inactive | Non-toxic | Non-toxic | Non-toxic | Non-toxic |
| 0.976 µM | OC[C@H]1O[C@@H](n2c3ccc(Cl)cc3c3c(-c4cc5ccccc5o4)ncnc32)[C@H](O)[C@@H]1O | Non-toxic | Non-toxic | > 50 µM | > 50 µM | inactive | Non-toxic | Non-toxic | Non-toxic | Non-toxic |
| 2.91 µM | OC[C@H]1O[C@@H](n2c3ccc(-c4ccccc4)cc3c3c(-c4ccco4)ncnc32)[C@H](O)[C@@H]1O | Non-toxic | Non-toxic | 20.7 µM | 41.3 µM | inactive | Non-toxic | Non-toxic | Non-toxic | Non-toxic |

| Compound | IC50 (dengue virus type 2) | Activity (HeLa [1]) | Activity (HL-60 [2]) | CC50 at 96 h [3] | IC50 (THP-1) | Activity (Hepatitis C virus) | Activity (HeLa [4]) | Activity (CCRF-CEM [5]) | Activity (HL-60 [6]) | Activity (CCRF-CEM [7]) |
| --- | --- | --- | --- | --- | --- | --- | --- | --- | --- | --- |
| OC[C@H]1O[C@@H](n2c3ccc(Cl)cc3c3c(-c4ccccc4)ncnc32)[C@H](O)[C@@H]1O | 26.4 µM | Non-toxic | Non-toxic | > 50 µM | > 50 µM | inactive | Non-toxic | Non-toxic | Non-toxic | Non-toxic |
| OC[C@H]1O[C@@H](n2c3ccc(Cl)cc3c3c(-c4ccco4)ncnc32)[C@H](O)[C@@H]1O | 0.238 µM | Non-toxic | Non-toxic | 0.175 µM | 1.56 µM | inactive | Non-toxic | Non-toxic | Non-toxic | Non-toxic |
